Assay results taken from the supplement of paper PMC8149375.

Key:
Settings in all cases: treatment: drug alone; 5 days
TK-10 [1] = assay: AUC of dose-response viability curve, drug alone (arbitrary (AUC of normalised viability)); higher = less growth inhibition
Description: (§1)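 Primary HTS: 8 RCC cell lines treated with 8 doses (up to 10 uM) of each library drug alone for 5 days; viability read by CellTiter-Glo and normalised to DMSO. GI50 was fitted with XLfit (4-parameter), AUC is the area under the dose-response curve, and minimum viability is the lowest fraction of DMSO viability across doses.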

769-P [2] = assay: as above
Description: as §1

SN12C [3] = assay: as above
Description: as §1

CAKI-1 [4] = assay: as above
Description: as §1

A498 [5] = assay: as above
Description: as §1

UO-31 [6] = assay: as above
Description: as §1

786-O [7] = assay: as above
Description: as §1

ACHN [8] = assay: as above
Description: as §1

TK-10 [9] = assay: minimum viability across doses, drug alone, relative to DMSO (fraction); higher = less growth inhibition
Description: as §1

769-P [10] = assay: as above
Description: as §1

SN12C [11] = assay: as above
Description: as §1

CAKI-1 [12] = assay: as above
Description: as §1

A498 [13] = assay: as above
Description: as §1

UO-31 [14] = assay: as above
Description: as §1

786-O [15] = assay: as above
Description: as §1

ACHN [16] = assay: as above
Description: as §1

TK-10 [17] = assay: GI50, drug alone; higher = less potent
Description: as §1

769-P [18] = assay: GI50, drug alone; higher = less potent
Description: as §1

SN12C [19] = assay: GI50, drug alone; higher = less potent
Description: as §1

CAKI-1 [20] = assay: GI50, drug alone; higher = less potent
Description: as §1

A498 [21] = assay: GI50, drug alone; higher = less potent
Description: as §1

UO-31 [22] = assay: GI50, drug alone; higher = less potent
Description: as §1

786-O [23] = assay: GI50, drug alone; higher = less potent
Description: as §1

ACHN [24] = assay: GI50, drug alone; higher = less potent
Description: as §1

Row | Compound | GI50, drug alone (786-O [23]) [nM] | GI50, drug alone (ACHN [24]) [nM] | AUC of dose-response viability curve (TK-10 [1]) | AUC of dose-response viability curve (769-P [2]) | AUC of dose-response viability curve (SN12C [3]) | AUC of dose-response viability curve (CAKI-1 [4]) | AUC of dose-response viability curve (A498 [5]) | AUC of dose-response viability curve (UO-31 [6]) | AUC of dose-response viability curve (786-O [7]) | AUC of dose-response viability curve (ACHN [8]) | minimum viability across doses (TK-10 [9]) | minimum viability across doses (769-P [10]) | minimum viability across doses (SN12C [11]) | minimum viability across doses (CAKI-1 [12]) | minimum viability across doses (A498 [13]) | minimum viability across doses (UO-31 [14]) | minimum viability across doses (786-O [15]) | minimum viability across doses (ACHN [16]) | GI50, drug alone (TK-10 [17]) [nM] | GI50, drug alone (769-P [18]) [nM] | GI50, drug alone (SN12C [19]) [nM] | GI50, drug alone (CAKI-1 [20]) [nM] | GI50, drug alone (A498 [21]) [nM] | GI50, drug alone (UO-31 [22]) [nM]
1 | CNC(=O)c1ccccc1Sc1ccc2c(/C=C/c3ccccn3)n[nH]c2c1 [Axitinib] | > 10000 | 4700 | 3.07 | 3.08 | 3.06 | 2.86 | 4.06 | 4.27 | 3.02 | 3.13 | 0.748 | 0.436 | 0.375 | 0.367 | 0.779 | 0.672 | 0.661 | 0.287 | > 10000 | 6970 | 5600 | 2870 | > 10000 | > 10000
2 | COc1cc(OC)c(/C=C/S(=O)(=O)Cc2ccc(OC)c(NCC(=O)[O][Na])c2)c(OC)c1 | 23.3 | 123 | 2.13 | 1.49 | 2.01 | 1.63 | 1.91 | 1.46 | 0.88 | 1.7 | 0.273 | 0.0669 | 0.124 | 0.119 | 0.154 | 0.0069 | 0.00295 | 0.102 | 327 | 82.1 | 216 | 74.3 | 91.2 | 85.5
3 | Nc1nc(NCCNc2ncc(-n3ccnc3)c(-c3ccc(Cl)cc3Cl)n2)ccc1[N+](=O)[O-] | 1240 | 3930 | 2.43 | 2.89 | 3.5 | 3.69 | 4.54 | 3.59 | 2.36 | 3.06 | 0.0728 | 0.0343 | 0.455 | 0.211 | 0.701 | 0.0119 | 0.013 | 0.0311 | 1920 | 2720 | 9820 | 7770 | > 10000 | 1650
4 | Cc1n[nH]c2ccc(-c3cncc(OC[C@@H](N)Cc4ccccc4)c3)cc12 | 879 | 667 | 2.54 | 2.74 | 2.55 | 2.6 | 2.46 | 2.35 | 2.19 | 2.28 | 0.141 | 0.0141 | 0.00861 | 0.073 | 0.0113 | 0.00834 | 0.00649 | 0.00528 | 1390 | 2010 | 1430 | 1220 | 1160 | 887
5 | O=C(c1ccc(/C=C/c2n[nH]c3ccccc23)cc1)N1CCNCC1 [KW 2449] | > 10000 | 2120 | 3.23 | 3.12 | 3.03 | 2.93 | 3.72 | 4.33 | 3.77 | 2.67 | 0.645 | 0.549 | 0.241 | 0.268 | 0.828 | 0.86 | 0.814 | 0.215 | > 10000 | > 10000 | 4760 | 3540 | > 10000 | > 10000
6 | Oc1ccc(-c2nc(-c3ccc(F)cc3)c(-c3ccncc3)[nH]2)cc1 | > 10000 | 9970 | 2.88 | 3.41 | 3.4 | 3.25 | 4.09 | 4.47 | 3.04 | 2.91 | 0.659 | 0.904 | 0.936 | 0.637 | 1.02 | 0.308 | 0.65 | 0.473 | > 10000 | > 10000 | > 10000 | > 10000 | > 10000 | > 10000
7 | COc1cc2nccc(Oc3ccc(NC(=O)Nc4cc(C)on4)c(Cl)c3)c2cc1OC [Tivozanib (AV-951)] | > 10000 | 6950 | 3.14 | 3.47 | 3.26 | 2.12 | 4.88 | 2.98 | 3.89 | 3.21 | 0.641 | 0.849 | 0.417 | 0.0726 | 1.12 | 0.00837 | 0.904 | 0.352 | > 10000 | > 10000 | 9390 | 2020 | > 10000 | 301

Now from value to compound, other results behind:

Row | GI50, drug alone (786-O [23]) [nM] | GI50, drug alone (ACHN [24]) [nM] | Compound | AUC of dose-response viability curve (TK-10 [1]) | AUC of dose-response viability curve (769-P [2]) | AUC of dose-response viability curve (SN12C [3]) | AUC of dose-response viability curve (CAKI-1 [4]) | AUC of dose-response viability curve (A498 [5]) | AUC of dose-response viability curve (UO-31 [6]) | AUC of dose-response viability curve (786-O [7]) | AUC of dose-response viability curve (ACHN [8]) | minimum viability across doses (TK-10 [9]) | minimum viability across doses (769-P [10]) | minimum viability across doses (SN12C [11]) | minimum viability across doses (CAKI-1 [12]) | minimum viability across doses (A498 [13]) | minimum viability across doses (UO-31 [14]) | minimum viability across doses (786-O [15]) | minimum viability across doses (ACHN [16]) | GI50, drug alone (TK-10 [17]) [nM] | GI50, drug alone (769-P [18]) [nM] | GI50, drug alone (SN12C [19]) [nM] | GI50, drug alone (CAKI-1 [20]) [nM] | GI50, drug alone (A498 [21]) [nM] | GI50, drug alone (UO-31 [22]) [nM]
8 | 2000 | 3420 | COc1cc2c(Nc3ccc(NC(=O)c4ccccc4)cc3)ncnc2cc1OCCCN1CCOCC1 | 2.86 | 3.12 | 2.89 | 3.03 | 4.49 | 4.2 | 2.52 | 2.57 | 0.243 | 0.24 | 0.537 | 0.108 | 0.722 | 0.175 | 0.00931 | 0.152 | 4200 | 5720 | > 10000 | 2630 | > 10000 | 9010
9 | 170 | 9840 | CC(=O)Nc1ccc(NC(=S)NC(=O)c2ccc(C(C)(C)C)cc2)cc1 [Tenovin-1] | 2.63 | 2.48 | 3.15 | 2.96 | 2.77 | 2.6 | 1.52 | 2.75 | 0.412 | 0.0841 | 0.762 | 0.536 | 0.0355 | 0.00581 | 0.00113 | 0.515 | 5190 | 818 | > 10000 | > 10000 | 978 | 264
10 | > 10000 | 1880 | C[C@@H]1COC(Nc2ccc3ncnc(Nc4ccc(OCc5nccs5)c(Cl)c4)c3c2)=N1 | 2.46 | 2.72 | 3.25 | 3.13 | 4.91 | 4.74 | 2.6 | 2.8 | 0.369 | 0.431 | 0.76 | 0.478 | 1.1 | 0.919 | 0.5 | 0.433 | 2210 | 4050 | > 10000 | 9750 | > 10000 | > 10000
11 | > 10000 | 6950 | O=C1C(=O)N(Cc2ccc(Cl)c(Cl)c2)c2ccccc21 [Apoptosis Activator 2] | 2.82 | 3.51 | 2.93 | 3.53 | 4.06 | 4.31 | 1.07 | 2.87 | 0.439 | 0.654 | 0.193 | 0.342 | 0.506 | 0.818 | 0.00355 | 0.339 | 8150 | > 10000 | 4980 | 7680 | > 10000 | > 10000
12 | > 10000 | 1040 | C#Cc1cccc(Nc2ncnc3cc(OCCOC)c(OCCOC)cc23)c1.Cl [Erlotinib HCl] | 2.59 | 2.66 | 3.46 | 2.99 | 3.55 | 3.8 | 3.37 | 2.43 | 0.471 | 0.39 | 0.731 | 0.183 | 0.915 | 0.961 | 0.549 | 0.137 | 5250 | 3680 | > 10000 | 3610 | > 10000 | > 10000
13 | 451 | 732 | Cc1cc(CN2CCN(c3c(Br)cnc4[nH]c(-c5ccc(N6CCN(C)CC6)cc5)nc34)CC2)no1 | 2.61 | 2.44 | 2.74 | 2.6 | 3.57 | 4.13 | 2.01 | 2.36 | 0.177 | 0.0185 | 0.0135 | 0.00778 | 0.0157 | 0.0211 | 0.00301 | 0.00704 | 2840 | 858 | 2420 | 885 | 3350 | 8570
14 | 1460 | 162 | CN(C)C/C=C/C(=O)Nc1cc2c(Nc3ccc(F)c(Cl)c3)ncnc2cc1O[C@H]1CCOC1 [Afatinib (BIBW2992)] | 1.73 | 1.94 | 2.37 | 2.18 | 2.87 | 3.72 | 2.26 | 1.71 | 0.0844 | 0.0284 | 0.0794 | 0.047 | 0.00814 | 0.00799 | 0.00665 | 0.000546 | 157 | 298 | 1340 | 673 | 2860 | 2610
15 | > 10000 | 13.3 | COCC[n+]1c2c(n(Cc3cnccn3)c1C)C(=O)c1ccccc1C2=O [YM155] | 1.14 | 0.736 | 0.567 | 0.655 | 0.68 | 0.852 | 0.165 | 0.648 | 0.0341 | 0.00858 | 0.00269 | 0.00636 | 0.0106 | 0.00519 | 0.00377 | 0.00196 | 27.7 | 14.5 | 11.3 | 12.5 | 12.4 | 25.6
16 | 20.3 | > 10000 | O=c1sn(-c2cccc3ccccc23)c(=O)n1Cc1ccccc1 [Tideglusib] | 2.95 | 3.48 | 3.28 | 3.54 | 3.82 | 4.53 | 2.12 | 3.19 | 0.736 | 0.948 | 0.871 | 0.941 | 0.979 | 1.14 | 0.485 | 0.822 | > 10000 | > 10000 | > 10000 | > 10000 | > 10000 | > 10000
17 | < 3 | > 10000 | Nc1cccc2c1CN(C1CCC(=O)NC1=O)C2=O (stereo not drawn) [Lenalidomide (Revlimid)] | 3.21 | 3.64 | 3.28 | 3.56 | 4.04 | 5.03 | 1.86 | 3.29 | 0.864 | 0.963 | 0.865 | 0.972 | 0.98 | 1.19 | 0.325 | 0.878 | > 10000 | > 10000 | > 10000 | > 10000 | > 10000 | > 10000
